From patent US9744152B2, “Vitamins C and K for treating polycystic diseases” (IC-MedTech Corporation, priority 2010, dated 2017)
Marks after values point to notes of the source that are not given here.

Experiments:
Pkd2^WS25/− mice = experiment: Body, liver and kidney weights in Pkd2^WS25/− mice after 6 weeks of treatment; assay type: in vivo, mouse; details: for Kidney Weight / Kidney Weight (%) / Liver Weight / Liver Weight (%): 6 weeks in drinking water; for Body Weight: 6 weeks in drinking water (VC 15 g/L; VK3 0.15 g/L; APATONE® 15 g/L + 0.15 g/L)
Excerpt: (§1) Thirty seven PCK rats (20 females and 17 males) at age of 3 weeks were divided into four groups: (i) vitamin C (VC) treatment group: 5 females and 4 males; (ii) vitamin K3 (VK3) treatment group: 5 females and 4 males; (iii) APATONE® treatment group: 6 females and 5 males; and (iv) control group: 4 females and 4 males. Similarly, twenty Pkd2^WS25/− mice (12 females and 8 males) at age of 5 months were divided into four groups: (i) vitamin C (VC) treatment group: 3 females; (ii) vitamin K3 (VK3) treatment group: 2 females and 2 males; (iii) APATONE® treatment group: 4 females and 3 males; and (iv) control group: 3 females and 3 males.
(§2) The VC treatment groups were given vitamin C at a concentration of 15 g/L in drinking water. The VK3 treatment groups were given vitamin K3 at a concentration of 0.15 g/L in drinking water. The APATONE® treatment groups were given vitamins C and K3 at concentrations of 15 g/L and 0.15 g/L, respectively, in drinking water. The control groups were given drinking water only. Rats or mice in each group were allowed to drink freely.
(§3) The rats and mice were sacrificed after 6 weeks of treatment. The following parameters were analyzed: body weights, liver and kidney weights, serum biochemistry, renal and hepatic cystic and fibrotic areas, apoptotic and proliferation indices, expression of Cdc25A and its down-stream targets. […]

PCK rats = experiment: Body, liver and kidney weights in PCK rats after 6 weeks of treatment; assay type: in vivo, rat; details: for Kidney Weight / Kidney Weight (% bw) / Liver Weight / Liver Weight (% bw): 6 weeks in drinking water; for Body Weight: 6 weeks in drinking water (VC 15 g/L; VK3 0.15 g/L; APATONE® 15 g/L + 0.15 g/L)
Excerpt: as §1, §2, §3

`O=C1O[C@H]([C@@H](O)CO)C(O)=C1O` [VC, L-ascorbic acid] was tested, and the “Kidney Weight” value (Pkd2^WS25/− mice) was 0.46 ± 0.04 g, the “Kidney Weight (%)” value (Pkd2^WS25/− mice) was 1.76 ± 0.16% and the “Liver Weight” value (Pkd2^WS25/− mice) was 2.29 ± 0.43 g. The “Liver Weight (%)” value (Pkd2^WS25/− mice) was 9.29 ± 2.01%, the “Body Weight” value (Pkd2^WS25/− mice) was 26.7 ± 2.0 g and the “Body Weight (g) Change vs Ctrl” value (Pkd2^WS25/− mice) was 1.5%. The “Kidney Weight (% bw) Change vs Ctrl” value (Pkd2^WS25/− mice) was −6.7%, the “Kidney Weight (g) Change vs Ctrl” value (Pkd2^WS25/− mice) was −6.1% and the “Liver Weight (% bw) Change vs Ctrl” value (Pkd2^WS25/− mice) was 15.4%. For the same compound, the “Liver Weight (g) Change vs Ctrl” value (Pkd2^WS25/− mice) was 8.0%, the “Kidney Weight” value (PCK rats; Female) was 3.88 ± 0.19 g and the “Kidney Weight (% bw)” value (PCK rats; Female) was 1.47 ± 0.11 % bw. The “Liver Weight” value (PCK rats; Female) was 16.6 ± 1.3 g, the “Liver Weight (% bw)” value (PCK rats; Female) was 6.36 ± 0.23 % bw and the “Body Weight” value (PCK rats; Female) was 261 ± 10 g. For the same compound, the “Body Weight (g) Change vs Ctrl” value (PCK rats; Female) was −3.3%, the “Kidney Weight (% bw) Change vs Ctrl” value (PCK rats; Female) was −0.7% and the “Kidney Weight (g) Change vs Ctrl” value (PCK rats; Female) was −2.8%. The “Liver Weight (% bw) Change vs Ctrl” value (PCK rats; Female) was 0.8%, the “Liver Weight (g) Change vs Ctrl” value (PCK rats; Female) was −2.8% and the “Kidney Weight” value (PCK rats; Male) was 4.95 ± 0.18 g. The “Kidney Weight (% bw)” value (PCK rats; Male) was 1.19 ± 0.13 % bw, the “Liver Weight” value (PCK rats; Male) was 23.3 ± 1.8 g and the “Liver Weight (% bw)” value (PCK rats; Male) was 5.61 ± 0.14 % bw. For the same compound, the “Body Weight” value (PCK rats; Male) was 416 ± 13 g, the “Body Weight (g) Change vs Ctrl” value (PCK rats; Male) was 0.8% and the “Kidney Weight (% bw) Change vs Ctrl” value (PCK rats; Male) was 0%. The “Kidney Weight (g) Change vs Ctrl” value (PCK rats; Male) was 1.2%, the “Liver Weight (% bw) Change vs Ctrl” value (PCK rats; Male) was −1.2% and the “Liver Weight (g) Change vs Ctrl” value (PCK rats; Male) was −0.4%.
`CC1=CC(=O)c2ccccc2C1=O` [VK3, menadione] was tested, and the “Kidney Weight” value (Pkd2^WS25/− mice) was 0.42 ± 0.01 g, the “Kidney Weight (%)” value (Pkd2^WS25/− mice) was 1.53 ± 0.05% and the “Liver Weight” value (Pkd2^WS25/− mice) was 1.64 ± 0.15 g. For the same compound, the “Liver Weight (%)” value (Pkd2^WS25/− mice) was 5.87 ± 0.36%, the “Body Weight” value (Pkd2^WS25/− mice) was 27.9 ± 1.9 g and the “Body Weight (g) Change vs Ctrl” value (Pkd2^WS25/− mice) was 5.8%. For the same compound, the “Kidney Weight (% bw) Change vs Ctrl” value (Pkd2^WS25/− mice) was −19.0%*, the “Kidney Weight (g) Change vs Ctrl” value (Pkd2^WS25/− mice) was −14.3%* and the “Liver Weight (% bw) Change vs Ctrl” value (Pkd2^WS25/− mice) was −27.1%*. The “Liver Weight (g) Change vs Ctrl” value (Pkd2^WS25/− mice) was −22.6%*, the “Kidney Weight” value (PCK rats; Female) was 3.78 ± 0.09 g and the “Kidney Weight (% bw)” value (PCK rats; Female) was 1.36 ± 0.13 % bw. For the same compound, the “Liver Weight” value (PCK rats; Female) was 15.5 ± 0.6 g, the “Liver Weight (% bw)” value (PCK rats; Female) was 5.60 ± 0.13 % bw and the “Body Weight” value (PCK rats; Female) was 276 ± 9 g. The “Body Weight (g) Change vs Ctrl” value (PCK rats; Female) was 2.2%, the “Kidney Weight (% bw) Change vs Ctrl” value (PCK rats; Female) was −8.1%* and the “Kidney Weight (g) Change vs Ctrl” value (PCK rats; Female) was −5.2%*. For the same compound, the “Liver Weight (% bw) Change vs Ctrl” value (PCK rats; Female) was −11.3%*, the “Liver Weight (g) Change vs Ctrl” value (PCK rats; Female) was −9.2%* and the “Kidney Weight” value (PCK rats; Male) was 4.57 ± 0.13 g. For the same compound, the “Kidney Weight (% bw)” value (PCK rats; Male) was 1.11 ± 0.11 % bw, the “Liver Weight” value (PCK rats; Male) was 20.8 ± 0.5 g and the “Liver Weight (% bw)” value (PCK rats; Male) was 5.12 ± 0.09 % bw. The “Body Weight” value (PCK rats; Male) was 408 ± 16 g, the “Body Weight (g) Change vs Ctrl” value (PCK rats; Male) was −1.1% and the “Kidney Weight (% bw) Change vs Ctrl” value (PCK rats; Male) was −6.7%*. The “Kidney Weight (g) Change vs Ctrl” value (PCK rats; Male) was −6.5%*, the “Liver Weight (% bw) Change vs Ctrl” value (PCK rats; Male) was −9.8%* and the “Liver Weight (g) Change vs Ctrl” value (PCK rats; Male) was −10.9%*.
